Target: Macrophage metalloelastase (Homo sapiens, UniProt P39900)
Test: MMP Inhibitory Assays
Procedure: The inhibitory effect of compounds on the rate of cleaving fluorogenic MMP substrate (Enzo, BML-P128) by recombinant human MMP-12 catalytic domain (Enzo, BML-SE138) was carried out by methods known in the art. Briefly, to each well of a 96-well black opaque plate, all the reagents were sequentially added by pipetting, and the final reaction contained 4 nM of recombinant human MMP-12 catalytic domain, […] MMP substrate, and various concentrations (0.15 nM to 10,000 nM) of tested compound dilutions in HEPES buffer (pH 7.5) containing 10 mM of CaCl2, 0.01% Brij 35 (polyoxyethylene (23) lauryl ether), and 0.1 mg/ml of BSA. The enzyme and compounds were pre-incubated on a shaker to mix in wells. After an hour of mixing, fluorogenic substrate was added to each well. Reaction without enzyme was used as a blank control in the plate. The plate was then fed into a plate reader to measure fluorescence intensity at Excitation/Emission wavelengths of 340 nm/440 nm every 10 mins for at least 1 hour at 37° C. The IC50 of each compound in MMP-12 inhibition was determined by using a readout obtained at time point 30 minutes.

Chain of Macrophage metalloelastase (P39900 whole entry): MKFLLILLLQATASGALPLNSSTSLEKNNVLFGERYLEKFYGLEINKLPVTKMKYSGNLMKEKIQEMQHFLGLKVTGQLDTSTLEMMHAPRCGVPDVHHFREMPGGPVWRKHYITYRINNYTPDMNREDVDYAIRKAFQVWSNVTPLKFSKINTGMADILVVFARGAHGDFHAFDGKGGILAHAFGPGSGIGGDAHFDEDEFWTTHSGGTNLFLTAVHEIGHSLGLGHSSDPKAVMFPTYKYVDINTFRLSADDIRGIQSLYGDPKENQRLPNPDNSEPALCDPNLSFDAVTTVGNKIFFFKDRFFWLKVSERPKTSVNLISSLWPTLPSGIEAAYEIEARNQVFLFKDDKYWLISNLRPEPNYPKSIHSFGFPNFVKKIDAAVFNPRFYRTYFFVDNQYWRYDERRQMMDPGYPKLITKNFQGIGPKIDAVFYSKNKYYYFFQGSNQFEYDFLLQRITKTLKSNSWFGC

IC50	SMILES
> 1000 nM	Cc1cccc(COc2ccc(Sc3ocnc3C3NC(=O)NC3=O)cc2)c1 (configuration not stated) [US20250115590, Compound OC-8]
> 1000 nM	O=C1NC(=O)C(c2ncoc2Sc2ccc(OCc3cccc(CO)c3)cc2)N1 (configuration not stated) [US20250115590, Compound OC-9]
